{
  "source": "ChEMBL document CHEMBL6153148",
  "about": "“Carboxamide-Bearing Panobinostat Analogues Designed To Interact with E103-D104 at the Cavity Opening of Class I HDAC Isoforms” (ACS Med Chem Lett, 2025)",
  "biological_target": "Histone deacetylase 2 (Homo sapiens, UniProt Q92769)",
  "sequence (Q92769 whole entry)": "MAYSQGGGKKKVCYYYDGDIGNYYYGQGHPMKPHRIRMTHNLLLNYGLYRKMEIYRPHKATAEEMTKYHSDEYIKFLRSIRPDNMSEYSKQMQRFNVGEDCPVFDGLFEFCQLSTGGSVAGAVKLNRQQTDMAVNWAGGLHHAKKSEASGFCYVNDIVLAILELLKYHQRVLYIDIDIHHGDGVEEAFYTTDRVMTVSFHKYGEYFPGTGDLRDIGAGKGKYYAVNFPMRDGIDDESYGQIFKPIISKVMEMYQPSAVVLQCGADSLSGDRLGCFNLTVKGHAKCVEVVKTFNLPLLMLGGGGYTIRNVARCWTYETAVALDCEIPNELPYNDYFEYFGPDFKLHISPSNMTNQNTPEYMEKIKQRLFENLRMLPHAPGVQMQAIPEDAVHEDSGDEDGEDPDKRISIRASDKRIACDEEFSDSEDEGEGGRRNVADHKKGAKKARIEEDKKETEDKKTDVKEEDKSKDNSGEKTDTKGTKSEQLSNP",
  "assay": "Inhibition of human HDAC2 using RHKKAc as substrate by fluorescence based analysis",
  "data": [
    {"smiles": "NC(=O)[C@H]1Cc2c([nH]c3ccccc23)[C@H](c2ccc(/C=C/C(=O)NO)cc2)N1", "values": [
      {"measurement": "IC50", "result": 3320, "unit": "nM"}
    ]},
    {"smiles": "NC(=O)[C@@H]1Cc2c([nH]c3ccccc23)[C@@H](c2ccc(/C=C/C(=O)NO)cc2)N1", "values": [
      {"measurement": "IC50", "result": 450, "unit": "nM"}
    ]},
    {"smiles": "NC(=O)[C@@H](Cc1c[nH]c2ccccc12)NCc1ccc(/C=C/C(=O)NO)cc1", "values": [
      {"measurement": "IC50", "result": 420, "unit": "nM"}
    ]},
    {"smiles": "Cc1[nH]c2ccccc2c1C[C@@H](NCc1ccc(/C=C/C(=O)NO)cc1)C(N)=O", "values": [
      {"measurement": "IC50", "result": 530, "unit": "nM"}
    ]},
    {"smiles": "NC(=O)[C@H](Cc1c[nH]c2ccccc12)NCc1ccc(/C=C/C(=O)NO)cc1", "values": [
      {"measurement": "IC50", "result": 350, "unit": "nM"}
    ]},
    {"smiles": "NC(=O)[C@@H]1Cc2c([nH]c3ccccc23)[C@H](c2ccc(/C=C/C(=O)NO)cc2)N1", "values": [
      {"measurement": "IC50", "result": 450, "unit": "nM"}
    ]},
    {"smiles": "NC(=O)[C@H]1Cc2c([nH]c3ccccc23)[C@@H](c2ccc(/C=C/C(=O)NO)cc2)N1", "values": [
      {"measurement": "IC50", "result": 3320, "unit": "nM"}
    ]},
    {"smiles": "Cc1[nH]c2ccccc2c1C[C@H](NCc1ccc(/C=C/C(=O)NO)cc1)C(N)=O", "values": [
      {"measurement": "IC50", "result": 150, "unit": "nM"}
    ]}
  ]
}
